Experiments:
human donor lenses = conditions: ex-vivo; cited from earlier work
[1] = Solubility profile of LACE; format: physicochemical
Solution pH of LACE = format: physicochemical
Log P of LACE = format: physicochemical
Hygroscopicity of LACE = format: physicochemical
[2] = Osmolality of EV06 compositions adjusted with glycerol; format: physicochemical
Experimental: The requisite osmolality range for drug-containing formulations and placebo is 280-320 mOsm/kg. Preferably, all LACE formulations need to be within 290-310 mOsm/Kg.
A series of placebos was prepared. All placebos, and the LACE-containing solutions that were subsequently prepared, contained the following, with varying amounts of Glycerol: • 0.5% (5 mg/g) Alanine • 0.005% (0.05 mg/g) Benzalkonium Chloride • Small amounts of 1 N Sodium Hydroxide, 1 N Hydrochloric Acid, to adjust pH to 4.5 • Water for Injection (added for final weight)
Target for Total Osmolality was 300 mOsm/kg.
Accordingly, a full series of solutions was prepared with slightly altered target osmolalities for the solutions without LACE, and therefore different target glycerol contents. All solutions were prepared using the same Alanine/Benzalkonium Chloride, pH 4.5 stock solution used in the placebos, so that the final composition was consistently: […]

[3] = Degradation of LACE formulation in storage (HPLC); format: physicochemical
Description: An issue that has rendered formulation of LACE problematic has been the propensity to destabilize by ring-opening of the dithiolane linkage to form oxidized species that compromise the activity of the molecule.

mouse lenses = conditions: ex-vivo; cited from earlier work
[4] = Applicant's earlier observations

O[C@H](CS)[C@H](O)CS (racemic) [dithiothreitol (DTT), dithiothreitol]
Lens softening (human donor lenses): lens softening can be induced pharmacologically

C[N+](C)(C)CCOC(=O)CCCC[C@@H]1CCSS1 [LACE, Lipoic acid choline ester]
Solubility in acetonitrile ([1]; acetonitrile): >4 mg/mL in acetonitrile
Solubility in water ([1]; water): >50 mg/mL in water
Solution pH (Solution pH of LACE): 7-7.5
Log P (Log P of LACE): <2
Hygroscopicity (Hygroscopicity of LACE): Highly hygroscopic
Additional osmolality for every 1% LACE [2, 4]: 44-55 mOsm/kg
Additional osmolality for every 1% LACE, average [2, 4]: 48 mOsm/kg
Effect of LACE on osmolality for every 1% ([2]; from Table 7 series): 57-60 mOsm/kg
Degradation in storage ([3]; refrigerated temperatures): rapid oxidation occurs in storage as early as 1 week
Degradation in storage ([3]; room temperature): rapidly degrades into oxidized species

O=C(O)CCCC[C@@H]1CCSS1 (racemic) [lipoic acid]
Lens softening (mouse lenses): lens softening can be induced pharmacologically
